Reference: PMC12959773 (Protein & Cell, 2025)
Changes are numbered by the printed parent chain.

Columns and labels:
[1] = target: T1, SLC7A11-SLC3A2 complex (Homo sapiens, UniProt Q9UPY5); test: microscale thermophoresis; conditions: read-out: binding affinity
T1 construct: system xc-, heterodimeric light/heavy chain transporter; ectopically expressed in HEK293T cells; with Amino acid transporter heavy chain SLC3A2
T1 sequence (Q9UPY5 1-501): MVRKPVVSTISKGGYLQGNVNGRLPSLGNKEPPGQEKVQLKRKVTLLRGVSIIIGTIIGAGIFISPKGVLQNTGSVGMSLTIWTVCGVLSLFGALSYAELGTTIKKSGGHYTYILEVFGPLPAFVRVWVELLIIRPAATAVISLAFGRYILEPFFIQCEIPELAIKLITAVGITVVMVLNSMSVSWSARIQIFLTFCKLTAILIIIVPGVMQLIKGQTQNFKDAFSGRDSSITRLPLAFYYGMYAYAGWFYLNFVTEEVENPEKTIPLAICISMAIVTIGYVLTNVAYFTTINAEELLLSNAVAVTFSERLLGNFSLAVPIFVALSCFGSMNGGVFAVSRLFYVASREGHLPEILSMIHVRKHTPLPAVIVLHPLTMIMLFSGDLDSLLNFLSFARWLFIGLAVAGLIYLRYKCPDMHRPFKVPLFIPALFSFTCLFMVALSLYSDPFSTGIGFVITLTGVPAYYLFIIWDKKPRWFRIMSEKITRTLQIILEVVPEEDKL
T1 sequence (P08195 2-529 partner): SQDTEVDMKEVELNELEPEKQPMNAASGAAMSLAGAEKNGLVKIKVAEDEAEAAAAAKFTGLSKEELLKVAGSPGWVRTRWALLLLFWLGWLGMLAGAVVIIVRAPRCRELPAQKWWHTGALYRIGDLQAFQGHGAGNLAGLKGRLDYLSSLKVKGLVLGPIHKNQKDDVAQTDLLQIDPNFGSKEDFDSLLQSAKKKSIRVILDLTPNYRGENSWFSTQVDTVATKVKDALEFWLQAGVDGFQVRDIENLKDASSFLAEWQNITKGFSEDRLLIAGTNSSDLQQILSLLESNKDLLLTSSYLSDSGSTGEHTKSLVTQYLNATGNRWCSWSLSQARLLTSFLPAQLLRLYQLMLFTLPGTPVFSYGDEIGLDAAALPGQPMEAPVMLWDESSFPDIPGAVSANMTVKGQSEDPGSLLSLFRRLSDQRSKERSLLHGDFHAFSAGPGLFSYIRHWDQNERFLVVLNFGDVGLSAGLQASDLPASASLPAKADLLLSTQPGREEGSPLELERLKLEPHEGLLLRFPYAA

[2] = target: T2, SLC7A13-SLC3A1 complex (Homo sapiens, UniProt Q8TCU3, S219A); test: [2H]-cystine uptake, isotope tracking; type: cell-based; conditions: HEK293 cells transfected with SLC7A13 and SLC3A1; labelled compound
T2 construct: heterodimeric light/heavy chain transporter, dimer of heterodimers; ectopically expressed in HEK293T / HEK293 cells (Expi293 for cryo-EM); with Amino acid transporter heavy chain SLC3A1
T2 sequence (Q8TCU3 1-470 S219A): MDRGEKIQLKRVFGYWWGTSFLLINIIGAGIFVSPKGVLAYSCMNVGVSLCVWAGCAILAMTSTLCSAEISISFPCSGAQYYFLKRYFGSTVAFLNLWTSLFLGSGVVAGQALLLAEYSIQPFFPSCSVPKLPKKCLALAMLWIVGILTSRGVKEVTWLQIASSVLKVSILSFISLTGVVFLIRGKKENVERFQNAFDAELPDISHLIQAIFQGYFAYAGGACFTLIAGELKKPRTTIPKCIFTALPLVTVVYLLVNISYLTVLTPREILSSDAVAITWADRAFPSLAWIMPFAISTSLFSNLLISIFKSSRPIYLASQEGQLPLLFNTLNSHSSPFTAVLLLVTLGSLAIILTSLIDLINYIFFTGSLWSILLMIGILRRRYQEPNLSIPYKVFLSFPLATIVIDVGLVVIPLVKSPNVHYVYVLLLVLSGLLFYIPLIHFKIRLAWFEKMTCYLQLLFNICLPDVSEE
T2 sequence (Q07837 1-685 partner): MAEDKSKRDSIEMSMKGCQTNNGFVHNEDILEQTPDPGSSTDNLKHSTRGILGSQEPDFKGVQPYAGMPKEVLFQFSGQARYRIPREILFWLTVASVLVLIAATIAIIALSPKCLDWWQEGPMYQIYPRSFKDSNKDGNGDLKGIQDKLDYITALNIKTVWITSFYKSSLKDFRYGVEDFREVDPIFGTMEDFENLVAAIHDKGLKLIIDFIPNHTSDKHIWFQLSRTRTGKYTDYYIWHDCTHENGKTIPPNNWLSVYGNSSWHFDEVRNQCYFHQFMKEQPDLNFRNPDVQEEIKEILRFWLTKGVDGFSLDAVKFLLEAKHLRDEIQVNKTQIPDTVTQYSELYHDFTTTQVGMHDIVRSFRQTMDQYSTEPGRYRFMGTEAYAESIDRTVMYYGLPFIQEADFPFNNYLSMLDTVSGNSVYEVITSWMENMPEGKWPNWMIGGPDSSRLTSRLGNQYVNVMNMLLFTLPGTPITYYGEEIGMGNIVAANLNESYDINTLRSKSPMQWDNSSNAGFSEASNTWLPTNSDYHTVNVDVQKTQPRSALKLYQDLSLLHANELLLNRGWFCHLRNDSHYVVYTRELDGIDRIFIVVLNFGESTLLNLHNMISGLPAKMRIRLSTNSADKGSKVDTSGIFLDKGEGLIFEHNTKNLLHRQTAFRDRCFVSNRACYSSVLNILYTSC

[3] = target: T3, SLC7A13-SLC3A1 complex (Homo sapiens, UniProt Q8TCU3, S306A); test: [2H]-cystine uptake, isotope tracking; type: cell-based; conditions: HEK293 cells transfected with SLC7A13 and SLC3A1; labelled compound
T3 construct: heterodimeric light/heavy chain transporter, dimer of heterodimers; ectopically expressed in HEK293T / HEK293 cells (Expi293 for cryo-EM); with Amino acid transporter heavy chain SLC3A1
T3 sequence (Q8TCU3 1-470 S306A): T2 sequence (Q8TCU3 1-470 S219A) with A219S, S306A
T3 sequence (Q07837 1-685 partner): T2 sequence (Q07837 1-685 partner)

Kd [1]: 15.6 ± 7.04 µM
SMILES: N[C@@H](CSSC[C@H](N)C(=O)O)C(=O)O [cystine]
cystine uptake [2]: mutation in any of the seven SLC7A13-specific residues to alanine significantly reduced SLC7A13’s transporter activities
cystine uptake [3]: mutation in any of the seven SLC7A13-specific residues to alanine significantly reduced SLC7A13’s transporter activities
